The values that follow come from patent publication US3931204A, “Thieno[3,4-d]pyrimidines” (U.C.B. Societe Anonyme, priority 1974, dated 1976).

Data set [1] in a line: Intravenous lethal dose (LD50) in rat. Conditions: in vivo, solvent: A propylene glycol + water, B polyethylene glycol + ethanol, C, F, G water, D glycofurol. On the procedure: (§1) The intravenously administered lethal doses (LD50) were determined in rat and mouse. For compounds A to G mentioned above, the recorded results, expressed in mg of compound per kg of animal body weight, are given in the following Table: […]

Data set [2] concerns dog anaesthetized with nembutal. The data set can be described thus: Blood flow in thoracic aorta (cardiac output), vertebral artery (cerebral flow) and femoral artery (musculocutaneous peripheral flow), electromagnetic flow measurement, anaesthetized dog. It is filed as in vivo. Conditions: 2 mg/kg animal body weight, intravenous; for increase in the femoral flow: femoral artery; for increase in the cardiac flow: thoracic aorta; for increase in the cerebral flow (in words): vertebral artery; for duration of the increase of the cerebral circulation: increase by 30 to 40%. On the procedure: The measurements were carried out by means of periarterial probes according to the principle of electromagnetic flow measurement. The general experimental conditions have already been described in the Literature (D. WELLENS and E. WAUTERS, Arch.Int.Pharmacod.171/1,(1968), 246). The medicament was administered by intravenous route.
The administration of compounds according to the invention, namely the 2-chloro-4-isopropylamino-thieno[3,4-d]pyrimidine monohydrochloride (compound A), the 2-chloro-4-morpholino-thieno[3,4-d]pyrimidine monohydrochloride (compound B), the 2-chloro-4-(3-methyl-morpholino)-thieno[3,4-d]pyrimidine monohydrochloride (compound C), the 2-n-propylamino-4-isopropylamino-thieno[3,4-d]-pyrimidine monomaleate (compound D) and the 2-n-propyl-4-isopropylamino-thieno[3,4-d]pyrimidine mono-maleate (compound E) brought about the following effects under these conditions: […]

Data set [3] in a line: Intravenous lethal dose (LD50) in mouse. The following applies: in vivo, solvent: C water, D glycofurol, E polyethylene glycol. The method, then:
as §1

Data set [4] relates to rabbit, in morphinic respiratory depression. Briefly: Respiratory analeptic action in morphinic respiratory depression. It is filed as in vivo. Conditions: 2,5 mg of free base/kg animal body weight.

For orientation: LD50 means the dose at which mortality reaches 50%.

Molecules are shown by their SMILES.

For the compound `CC(C)Nc1nc(Cl)nc2cscc12.Cl` [A, 2-chloro-4-isopropylamino-thieno[3,4-d]pyrimidine monohydrochloride], the LD50 in data set [1] amounted to 65 mg/kg. In addition, in data set [2], the “increase in the femoral flow” value is on record as “appreciable increase”, the “increase in the cardiac flow” value is given as “appreciable increase” and the “increase in the cerebral flow (in words)” value was “appreciable increase”.
As for `Cl.Clc1nc(N2CCOCC2)c2cscc2n1` [B, 2-chloro-4-morpholino-thieno[3,4-d]pyrimidine monohydrochloride], the LD50 in data set [1] was 130 mg/kg. In data set [2], the “increase in the femoral flow” value is reported as “appreciable increase”, the “increase in the cardiac flow” value is listed as “appreciable increase” and the “increase in the cerebral flow (in words)” value is on record as “appreciable increase”.
For the compound `CC1COCCN1c1nc(Cl)nc2cscc12.Cl` (stereo not shown) [C, 2-chloro-4-(3-methyl-morpholino)-thieno[3,4-d]pyrimidine monohydrochloride], the LD50 in data set [1] was found to be 109 mg/kg. Also, the LD50 in data set [3] is 117 mg/kg. Also, in data set [2], the “increase in the femoral flow” value was “marked increase”, the “increase in the cardiac flow” value was “appreciable increase”, the “increase in the cerebral flow (in words)” value is “marked increase” and the “duration of the increase of the cerebral circulation” value is “at least 40 minutes”.
Regarding `CCCNc1nc(NC(C)C)c2cscc2n1.O=C(O)/C=C\C(=O)O` [D, 2-n-propylamino-4-isopropylamino-thieno[3,4-d]-pyrimidine monomaleate], in data set [1], the LD50 was determined as 25.5 mg/kg. Moreover, the LD50 in data set [3] was found to be 21 mg/kg. In addition, in data set [2], the “increase in the femoral flow” value is on record as “marked increase”, the “increase in the cardiac flow” value is listed as “appreciable increase”, the “increase in the cerebral flow (in words)” value is “marked increase” and the “duration of the increase of the cerebral circulation” value is given as “at least 40 minutes”.
`CCCc1nc(NC(C)C)c2cscc2n1.O=C(O)/C=C\C(=O)O` [E, 2-n-propyl-4-isopropylamino-thieno[3,4-d]pyrimidine mono-maleate] came in with an LD50 in data set [3] of 23 mg/kg. In data set [2], the “increase in the femoral flow” value is “appreciable increase”, the “increase in the cardiac flow” value is recorded as “appreciable increase” and the “increase in the cerebral flow (in words)” value is recorded as “appreciable increase”.
Turning to `CCOc1nc(NC(C)C)c2cscc2n1.Cl` [F, 2-ethoxy-4-isopropylamino-thieno[3,4-d]pyrimidine monohydrochloride], in data set [1], the median lethal dose (LD50) worked out at 49 mg/kg. The “respiratory analeptic effect relative to diethylnicotinamide” value in data set [4] was “equivalent to that produced by a six times higher dose of diethylnicotinamide”.
For the compound `CCCNc1nc(OCC)nc2cscc12.Cl` [G, 2-ethoxy-4-n-propylamino-thieno[3,4-d]pyrimidine monohydrochloride], the LD50 in data set [1] was found to be 42 mg/kg. For the same compound, the “respiratory analeptic effect relative to diethylnicotinamide” value in data set [4] is given as “equivalent to that produced by a six times higher dose of diethylnicotinamide”.
